According to ChEMBL document CHEMBL1149960, “Synthesis, insecticidal and anti-acetylcholinesterase activity of a new class of heterocyclic methanesulfonates” (Bioorg Med Chem Lett, 1996):
pIC50: −log10 of the molar value. Converted amounts (≈) assume the structure as drawn.

How the values were obtained:
Acetylcholinesterase = target: T1, Acetylcholinesterase (Bos taurus, UniProt P23795)
T1 sequence (P23795 whole entry): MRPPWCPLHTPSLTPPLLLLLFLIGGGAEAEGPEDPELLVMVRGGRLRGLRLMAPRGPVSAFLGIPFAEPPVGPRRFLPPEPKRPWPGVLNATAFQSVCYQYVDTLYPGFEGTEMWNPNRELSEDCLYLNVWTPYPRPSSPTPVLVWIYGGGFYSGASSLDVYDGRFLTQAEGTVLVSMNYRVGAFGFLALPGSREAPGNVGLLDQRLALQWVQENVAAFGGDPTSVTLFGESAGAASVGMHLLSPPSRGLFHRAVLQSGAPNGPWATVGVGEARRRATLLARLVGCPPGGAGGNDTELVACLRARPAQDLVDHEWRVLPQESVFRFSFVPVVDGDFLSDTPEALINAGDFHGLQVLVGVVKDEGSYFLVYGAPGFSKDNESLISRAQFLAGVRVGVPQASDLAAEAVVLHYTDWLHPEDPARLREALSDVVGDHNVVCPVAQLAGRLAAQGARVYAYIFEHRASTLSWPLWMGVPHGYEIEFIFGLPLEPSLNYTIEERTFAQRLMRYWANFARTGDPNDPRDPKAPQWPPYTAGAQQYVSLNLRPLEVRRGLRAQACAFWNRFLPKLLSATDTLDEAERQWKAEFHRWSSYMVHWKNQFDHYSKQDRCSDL
Description: Inhibition of bovine erythrocyte acetylcholinesterase (AChE)

[1] = system: Diabrotica undecimpunctata; experiment: whole plant or invertebrate; settings: in Zea mays, read-out: LD50
Description: Insecticidal activity against southern Corn rootworm (SCRW)

Lucilia cuprina = experiment: whole plant or invertebrate
Description: Insecticidal activity against blowfly Lucilia cuprina

`CC(C)CS(=O)(=O)c1cccc(OS(C)(=O)=O)n1` showed a pIC50 (Acetylcholinesterase) of 4.22, an LC50 [1] of under 0.5 µg/mL and an LD50 (Lucilia cuprina) of over 100 mg/kg.

`CC(C)C(=O)N1N=C(OS(C)(=O)=O)CC1(C)C` showed a pIC50 (Acetylcholinesterase) of under 3.00, an LC50 [1] of 120 µg/mL (≈ 457 µM) and an LD50 (Lucilia cuprina) of over 100 mg/kg.

Compound `CCOC(=O)N1N=C(OS(C)(=O)=O)CC1(C)C` has a pIC50 (Acetylcholinesterase) of under 3.00, an LC50 [1] of over 1000 µg/mL and an LD50 (Lucilia cuprina) of over 100 mg/kg.

For `CC(C)(C)NC(=O)N1N=C(OS(C)(=O)=O)CC1(C)C`, the pIC50 (Acetylcholinesterase) was under 3.00, the LC50 [1] was 12 µg/mL (≈ 41.2 µM) and the LD50 (Lucilia cuprina) was 75.9 mg/kg.

`CCCNS(=O)(=O)N1N=C(OS(C)(=O)=O)CC1(C)C` was tested, and the pIC50 (Acetylcholinesterase) was under 3.00, the LC50 [1] was 55 µg/mL (≈ 175 µM) and the LD50 (Lucilia cuprina) was 40.9 mg/kg.

Work on `CC1(C)CC(OS(C)(=O)=O)=NN1C(N)=O` yielded a pIC50 (Acetylcholinesterase) of under 3.00, an LC50 [1] of over 1000 µg/mL and an LD50 (Lucilia cuprina) of over 1000 mg/kg.

`CC1(C)CC(OS(C)(=O)=O)=NN1S(C)(=O)=O` showed a pIC50 (Acetylcholinesterase) of under 3.00, an LC50 [1] of over 1000 µg/mL and an LD50 (Lucilia cuprina) of over 1000 mg/kg.

Work on `CC1(C)CC(OS(C)(=O)=O)=NN1C(=O)NC1CCCCC1` yielded a pIC50 (Acetylcholinesterase) of 3.55, an LC50 [1] of over 1000 µg/mL and an LD50 (Lucilia cuprina) of 2.64 mg/kg.

Work on `CN(C)S(=O)(=O)N1N=C(OS(C)(=O)=O)CC1c1ccccc1` (stereo unspecified) yielded a pIC50 (Acetylcholinesterase) of under 3.00, an LC50 [1] of over 1000 µg/mL and an LD50 (Lucilia cuprina) of over 100 mg/kg.

`CC(C)NC(=O)N1N=C(OS(C)(=O)=O)CC1C` (stereo unspecified) showed a pIC50 (Acetylcholinesterase) of 4.54, an LC50 [1] of under 0.5 µg/mL and an LD50 (Lucilia cuprina) of 21 mg/kg.

In the case of `CC(C)NS(=O)(=O)N1N=C(OS(C)(=O)=O)CC1(C)C`, the pIC50 (Acetylcholinesterase) was 2.90, the LC50 [1] was 60 µg/mL (≈ 191 µM) and the LD50 (Lucilia cuprina) was 37 mg/kg.

With `CC(C)NC(=O)N1N=C(OS(C)(=O)=O)CC1C(C)C` (stereo unspecified) the pIC50 (Acetylcholinesterase) was 3.22, the LC50 [1] was 5 µg/mL (≈ 17.2 µM) and the LD50 (Lucilia cuprina) was 25.1 mg/kg.

`CC(C)NS(=O)(=O)N1N=C(OS(C)(=O)=O)CC1c1ccccc1` (stereo unspecified) was tested, and the pIC50 (Acetylcholinesterase) was under 3.00, the LC50 [1] was over 1000 µg/mL and the LD50 (Lucilia cuprina) was over 100 mg/kg.

For `CC(C)NC(=O)N1N=C(OS(C)(=O)=O)CC1c1ccccc1` (stereo unspecified), the pIC50 (Acetylcholinesterase) was 4.39, the LC50 [1] was under 0.5 µg/mL and the LD50 (Lucilia cuprina) was 34.4 mg/kg.

Work on `COP(=O)(OC)C(O)C(Cl)(Cl)Cl` (stereo unspecified) [TRICHLORFON] yielded a pIC50 (Acetylcholinesterase) of under 3.00 and an LD50 (Lucilia cuprina) of 21.8 mg/kg.

In the case of `CCCS(=O)(=O)N1N=C(OS(C)(=O)=O)CC1c1ccccc1` (stereo unspecified), the pIC50 (Acetylcholinesterase) was 4.20, the LC50 [1] was over 1000 µg/mL and the LD50 (Lucilia cuprina) was over 100 mg/kg.

With `C=CCNC(=O)N1N=C(OS(C)(=O)=O)CC1(C)C` the pIC50 (Acetylcholinesterase) was 3.83, the LC50 [1] was 1.6 µg/mL (≈ 5.81 µM) and the LD50 (Lucilia cuprina) was 6.84 mg/kg.

Compound `CC(C)NC(=O)N1N=C(OS(C)(=O)=O)CC1(C)C` has a pIC50 (Acetylcholinesterase) of 3.15, an LC50 [1] of 1 µg/mL (≈ 3.61 µM) and an LD50 (Lucilia cuprina) of 7.14 mg/kg.

In the case of `CC1(C)CC(OS(C)(=O)=O)=NN1C(=O)Nc1ccccc1`, the pIC50 (Acetylcholinesterase) was under 3.00, the LC50 [1] was over 1000 µg/mL and the LD50 (Lucilia cuprina) was over 100 mg/kg.
